This passage reports remaining activity results from paper PMC7224190, “Pharmacological inhibition of PRMT7 links arginine monomethylation to the cellular stress response” (Nature Communications, 2020).

Holding throughout (experiment): biochemical
Holding throughout (set-up): radiometric methyltransferase selectivity assay with tritiated SAM, per cent activity
What all share (settings): read-out: % of control remaining

For one test, the target named is T1, BCDIN3D (Homo sapiens, UniProt Q7Z5W3).
T1 sequence (Q7Z5W3 1-292): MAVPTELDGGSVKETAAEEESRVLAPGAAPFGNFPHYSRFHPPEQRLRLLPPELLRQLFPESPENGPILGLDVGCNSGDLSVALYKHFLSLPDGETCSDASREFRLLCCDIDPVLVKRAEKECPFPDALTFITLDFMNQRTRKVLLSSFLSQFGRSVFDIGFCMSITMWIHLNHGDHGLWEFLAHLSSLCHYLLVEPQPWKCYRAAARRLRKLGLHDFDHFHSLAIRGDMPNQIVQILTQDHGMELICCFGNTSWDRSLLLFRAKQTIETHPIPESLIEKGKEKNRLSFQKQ
In a few lines:
(§1)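 Radiometric methyltransferase assays with ³H-SAM and substrate near apparent Km, compound tested at 1 and 10 μM. Methyl incorporation into biotinylated substrate read by scintillation proximity after guanidine quench; no-compound = 100%, no-enzyme = 0% activity.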

A further test concerns the target T2, SUV420H1 (Homo sapiens, UniProt Q4FZB7).
T2 construct: gene KMT5B
Summed up: as §1

A further test concerns the target METTL3-14 (Homo sapiens, UniProt Q86U44). Summed up:
as §1

A further test concerns the target NSD1 (Homo sapiens, UniProt Q96L73). Summed up: as §1
The target of another test is T3, NSD3 (Homo sapiens, UniProt Q9BZ95).
T3 sequence (Q9BZ95 1-1437): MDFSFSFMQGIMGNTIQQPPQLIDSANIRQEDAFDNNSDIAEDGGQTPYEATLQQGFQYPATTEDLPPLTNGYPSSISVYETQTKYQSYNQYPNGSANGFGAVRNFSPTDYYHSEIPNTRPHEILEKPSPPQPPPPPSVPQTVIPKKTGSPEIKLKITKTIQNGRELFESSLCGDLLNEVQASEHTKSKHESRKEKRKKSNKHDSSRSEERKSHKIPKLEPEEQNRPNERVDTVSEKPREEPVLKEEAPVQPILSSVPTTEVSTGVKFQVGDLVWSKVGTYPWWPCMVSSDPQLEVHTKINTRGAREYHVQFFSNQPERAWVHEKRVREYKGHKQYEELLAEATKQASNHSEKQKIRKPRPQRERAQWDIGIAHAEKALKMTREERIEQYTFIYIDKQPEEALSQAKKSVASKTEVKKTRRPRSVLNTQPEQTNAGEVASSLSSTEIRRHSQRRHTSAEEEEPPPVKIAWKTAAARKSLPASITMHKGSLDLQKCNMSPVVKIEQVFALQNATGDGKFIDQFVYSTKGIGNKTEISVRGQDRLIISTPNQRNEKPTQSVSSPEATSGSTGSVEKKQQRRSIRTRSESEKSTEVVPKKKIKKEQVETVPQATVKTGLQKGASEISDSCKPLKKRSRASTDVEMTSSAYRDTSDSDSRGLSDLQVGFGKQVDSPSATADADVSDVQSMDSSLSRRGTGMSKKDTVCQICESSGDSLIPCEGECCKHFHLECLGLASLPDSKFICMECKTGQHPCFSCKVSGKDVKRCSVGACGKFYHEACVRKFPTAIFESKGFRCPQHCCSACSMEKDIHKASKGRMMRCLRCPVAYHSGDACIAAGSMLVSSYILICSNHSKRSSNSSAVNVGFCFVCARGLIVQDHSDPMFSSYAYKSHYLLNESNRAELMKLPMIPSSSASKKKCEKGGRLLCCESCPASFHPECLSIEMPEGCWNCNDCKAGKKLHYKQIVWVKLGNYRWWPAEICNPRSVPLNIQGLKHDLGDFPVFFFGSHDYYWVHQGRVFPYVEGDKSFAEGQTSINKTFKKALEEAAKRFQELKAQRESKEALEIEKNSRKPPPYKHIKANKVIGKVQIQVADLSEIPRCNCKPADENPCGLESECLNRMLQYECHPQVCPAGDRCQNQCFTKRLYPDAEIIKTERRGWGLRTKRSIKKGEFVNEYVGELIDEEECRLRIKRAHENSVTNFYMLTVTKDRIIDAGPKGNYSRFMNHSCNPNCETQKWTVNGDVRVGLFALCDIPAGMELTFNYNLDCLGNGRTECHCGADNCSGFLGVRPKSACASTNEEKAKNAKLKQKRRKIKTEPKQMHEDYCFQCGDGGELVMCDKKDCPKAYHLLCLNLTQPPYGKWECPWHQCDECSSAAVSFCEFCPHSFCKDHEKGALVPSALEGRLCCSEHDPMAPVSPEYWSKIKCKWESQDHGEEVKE
Summed up:
as §1

In a further test the target is T4, SUV420H2 (Homo sapiens, UniProt Q86Y97).
T4 construct: gene KMT5C
Summed up: as §1

T2 sequence (Q4FZB7 whole entry): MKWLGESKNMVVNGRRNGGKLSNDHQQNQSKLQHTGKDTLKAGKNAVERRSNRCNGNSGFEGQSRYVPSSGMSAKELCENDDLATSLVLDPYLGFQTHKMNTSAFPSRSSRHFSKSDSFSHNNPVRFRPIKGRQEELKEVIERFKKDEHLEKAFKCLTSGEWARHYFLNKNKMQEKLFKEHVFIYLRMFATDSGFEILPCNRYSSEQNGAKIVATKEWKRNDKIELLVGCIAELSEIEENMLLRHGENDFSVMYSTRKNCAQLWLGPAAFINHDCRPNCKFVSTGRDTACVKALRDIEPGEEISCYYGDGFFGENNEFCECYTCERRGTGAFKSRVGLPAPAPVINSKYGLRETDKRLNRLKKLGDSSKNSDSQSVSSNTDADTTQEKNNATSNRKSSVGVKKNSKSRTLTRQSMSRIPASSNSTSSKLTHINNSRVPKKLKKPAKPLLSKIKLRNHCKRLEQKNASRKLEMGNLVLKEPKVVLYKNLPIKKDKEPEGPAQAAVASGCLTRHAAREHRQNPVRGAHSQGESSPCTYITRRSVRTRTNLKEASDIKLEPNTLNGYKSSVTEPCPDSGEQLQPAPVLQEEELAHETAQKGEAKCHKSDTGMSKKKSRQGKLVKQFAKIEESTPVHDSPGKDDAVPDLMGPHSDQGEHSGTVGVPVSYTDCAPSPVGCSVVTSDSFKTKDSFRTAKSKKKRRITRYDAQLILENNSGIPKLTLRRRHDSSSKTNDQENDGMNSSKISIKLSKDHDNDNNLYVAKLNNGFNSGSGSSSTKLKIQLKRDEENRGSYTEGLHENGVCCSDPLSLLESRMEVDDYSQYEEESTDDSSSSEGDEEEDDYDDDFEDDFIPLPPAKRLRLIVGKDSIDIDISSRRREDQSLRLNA
T4 sequence (Q86Y97 whole entry): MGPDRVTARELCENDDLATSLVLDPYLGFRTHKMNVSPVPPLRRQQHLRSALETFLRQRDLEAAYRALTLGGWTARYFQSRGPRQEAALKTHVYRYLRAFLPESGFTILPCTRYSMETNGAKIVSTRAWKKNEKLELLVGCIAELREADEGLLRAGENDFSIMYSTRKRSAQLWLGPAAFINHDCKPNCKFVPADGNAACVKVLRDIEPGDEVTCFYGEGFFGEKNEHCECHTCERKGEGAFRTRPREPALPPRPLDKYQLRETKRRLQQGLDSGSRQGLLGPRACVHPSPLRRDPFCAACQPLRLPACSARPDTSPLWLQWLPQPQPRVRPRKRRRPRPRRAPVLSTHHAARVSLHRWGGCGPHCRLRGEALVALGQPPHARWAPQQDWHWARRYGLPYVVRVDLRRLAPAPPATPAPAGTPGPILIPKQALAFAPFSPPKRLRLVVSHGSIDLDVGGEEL
METTL3-14, sequence (Q86U44 whole entry): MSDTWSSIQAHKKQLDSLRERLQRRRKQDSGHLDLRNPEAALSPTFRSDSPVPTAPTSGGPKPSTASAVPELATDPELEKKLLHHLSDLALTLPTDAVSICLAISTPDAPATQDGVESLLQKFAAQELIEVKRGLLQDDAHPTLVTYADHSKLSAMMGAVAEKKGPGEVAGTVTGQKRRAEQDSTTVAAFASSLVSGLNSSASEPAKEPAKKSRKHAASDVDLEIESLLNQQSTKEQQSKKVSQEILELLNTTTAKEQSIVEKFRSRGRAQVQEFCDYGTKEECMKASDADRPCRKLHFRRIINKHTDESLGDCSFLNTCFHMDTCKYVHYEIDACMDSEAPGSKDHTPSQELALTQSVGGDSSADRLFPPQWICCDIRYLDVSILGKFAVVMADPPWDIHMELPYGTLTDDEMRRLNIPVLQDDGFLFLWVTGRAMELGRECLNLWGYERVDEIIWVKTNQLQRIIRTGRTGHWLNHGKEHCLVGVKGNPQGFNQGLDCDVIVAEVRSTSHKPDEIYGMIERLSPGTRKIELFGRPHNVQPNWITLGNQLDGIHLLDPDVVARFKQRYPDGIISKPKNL
METTL3-14, sequence (Q9HCE5 whole entry partner): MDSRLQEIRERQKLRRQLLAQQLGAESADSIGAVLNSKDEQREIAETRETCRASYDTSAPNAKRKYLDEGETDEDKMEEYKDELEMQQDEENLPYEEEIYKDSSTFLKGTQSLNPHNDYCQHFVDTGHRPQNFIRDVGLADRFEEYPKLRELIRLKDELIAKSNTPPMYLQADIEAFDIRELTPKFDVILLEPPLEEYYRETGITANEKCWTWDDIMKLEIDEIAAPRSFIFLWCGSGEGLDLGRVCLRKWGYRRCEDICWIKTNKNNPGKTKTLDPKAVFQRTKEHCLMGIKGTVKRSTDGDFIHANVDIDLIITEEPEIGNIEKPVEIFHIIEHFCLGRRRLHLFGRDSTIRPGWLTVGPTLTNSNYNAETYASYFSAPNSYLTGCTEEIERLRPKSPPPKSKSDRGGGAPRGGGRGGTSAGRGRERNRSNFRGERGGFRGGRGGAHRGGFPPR
NSD1, sequence (Q96L73 whole entry): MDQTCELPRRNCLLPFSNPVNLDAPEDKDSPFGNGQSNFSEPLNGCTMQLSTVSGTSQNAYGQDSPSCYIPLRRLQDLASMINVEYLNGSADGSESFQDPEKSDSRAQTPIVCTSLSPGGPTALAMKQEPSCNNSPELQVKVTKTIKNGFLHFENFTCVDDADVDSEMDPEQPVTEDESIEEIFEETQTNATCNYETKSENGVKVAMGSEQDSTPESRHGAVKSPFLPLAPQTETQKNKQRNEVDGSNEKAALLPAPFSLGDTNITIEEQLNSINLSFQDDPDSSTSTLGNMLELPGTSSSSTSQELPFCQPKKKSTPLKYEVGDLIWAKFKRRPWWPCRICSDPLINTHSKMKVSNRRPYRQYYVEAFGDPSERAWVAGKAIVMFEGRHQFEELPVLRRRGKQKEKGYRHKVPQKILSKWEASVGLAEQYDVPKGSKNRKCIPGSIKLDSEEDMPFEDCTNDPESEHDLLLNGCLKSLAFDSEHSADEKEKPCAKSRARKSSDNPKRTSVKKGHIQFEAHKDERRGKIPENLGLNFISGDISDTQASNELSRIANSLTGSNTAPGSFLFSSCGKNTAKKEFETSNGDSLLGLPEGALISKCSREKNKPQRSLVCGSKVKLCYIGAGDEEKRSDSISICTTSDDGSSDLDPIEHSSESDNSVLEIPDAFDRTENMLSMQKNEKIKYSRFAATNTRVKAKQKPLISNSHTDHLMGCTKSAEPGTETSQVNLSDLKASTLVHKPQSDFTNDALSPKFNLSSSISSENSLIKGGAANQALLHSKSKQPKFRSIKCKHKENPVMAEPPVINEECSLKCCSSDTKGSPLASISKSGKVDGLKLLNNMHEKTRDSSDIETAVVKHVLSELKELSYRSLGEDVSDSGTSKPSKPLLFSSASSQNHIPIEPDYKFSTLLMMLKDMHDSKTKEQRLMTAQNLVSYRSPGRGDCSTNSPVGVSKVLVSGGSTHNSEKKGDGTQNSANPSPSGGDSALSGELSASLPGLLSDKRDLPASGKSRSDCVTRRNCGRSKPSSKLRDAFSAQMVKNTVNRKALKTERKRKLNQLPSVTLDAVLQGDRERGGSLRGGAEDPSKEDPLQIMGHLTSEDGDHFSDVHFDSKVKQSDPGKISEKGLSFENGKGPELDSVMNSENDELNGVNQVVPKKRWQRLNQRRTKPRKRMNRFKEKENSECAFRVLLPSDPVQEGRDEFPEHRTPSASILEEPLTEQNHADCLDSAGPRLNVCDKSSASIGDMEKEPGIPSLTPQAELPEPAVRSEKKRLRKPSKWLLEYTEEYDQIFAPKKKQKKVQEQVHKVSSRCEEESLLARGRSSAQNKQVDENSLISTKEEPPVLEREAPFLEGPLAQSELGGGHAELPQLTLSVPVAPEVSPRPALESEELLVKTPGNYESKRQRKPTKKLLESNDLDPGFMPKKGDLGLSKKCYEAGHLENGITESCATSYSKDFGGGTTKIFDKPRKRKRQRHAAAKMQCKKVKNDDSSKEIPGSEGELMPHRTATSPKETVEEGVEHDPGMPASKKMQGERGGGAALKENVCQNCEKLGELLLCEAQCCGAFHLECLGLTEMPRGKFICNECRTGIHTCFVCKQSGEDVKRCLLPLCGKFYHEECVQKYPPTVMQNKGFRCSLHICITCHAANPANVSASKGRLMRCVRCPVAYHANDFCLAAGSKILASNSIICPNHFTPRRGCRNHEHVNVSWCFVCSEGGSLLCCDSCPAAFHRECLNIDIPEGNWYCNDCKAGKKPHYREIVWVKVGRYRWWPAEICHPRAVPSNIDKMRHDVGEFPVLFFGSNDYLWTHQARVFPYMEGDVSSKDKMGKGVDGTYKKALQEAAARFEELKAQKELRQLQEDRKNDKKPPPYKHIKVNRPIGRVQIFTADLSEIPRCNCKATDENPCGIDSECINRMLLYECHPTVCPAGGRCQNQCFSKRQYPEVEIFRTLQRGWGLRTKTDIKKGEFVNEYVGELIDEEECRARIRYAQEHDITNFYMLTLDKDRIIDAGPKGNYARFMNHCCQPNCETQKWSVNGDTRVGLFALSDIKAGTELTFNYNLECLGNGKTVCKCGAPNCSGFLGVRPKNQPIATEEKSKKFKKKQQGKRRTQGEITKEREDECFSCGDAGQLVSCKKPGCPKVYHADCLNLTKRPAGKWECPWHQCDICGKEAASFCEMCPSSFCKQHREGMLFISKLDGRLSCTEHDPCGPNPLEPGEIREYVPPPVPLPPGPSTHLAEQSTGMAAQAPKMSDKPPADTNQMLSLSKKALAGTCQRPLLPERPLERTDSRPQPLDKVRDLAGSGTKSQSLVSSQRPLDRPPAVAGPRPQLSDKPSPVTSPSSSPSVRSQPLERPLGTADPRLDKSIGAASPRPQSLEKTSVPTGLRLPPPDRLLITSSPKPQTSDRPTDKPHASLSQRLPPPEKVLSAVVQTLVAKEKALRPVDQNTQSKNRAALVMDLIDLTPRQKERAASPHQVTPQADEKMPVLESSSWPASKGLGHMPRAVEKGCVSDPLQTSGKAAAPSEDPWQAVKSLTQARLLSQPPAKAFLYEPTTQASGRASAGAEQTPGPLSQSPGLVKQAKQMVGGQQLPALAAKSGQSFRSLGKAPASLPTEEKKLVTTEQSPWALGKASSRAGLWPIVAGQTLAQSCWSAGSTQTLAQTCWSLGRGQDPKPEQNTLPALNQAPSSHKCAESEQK

As for `CC1(C)O[C@@H]2[C@H](O1)[C@@H](CSCCCCNCc1cccc(-c3ccc(Cl)cc3)c1)O[C@H]2n1cnc2c(N)ncnc21` [SGC8158N], the remaining activity at 1 µM at BCDIN3D turned out to be 96%; at SUV420H1, 99%; on METTL3-14, 87%; at NSD1, 99%; at NSD3, 100%; at SUV420H2 it was 102%. The remaining activity at 10 µM worked out at 94% at BCDIN3D; 102% at SUV420H1; 73% on METTL3-14; 98% at NSD1; 97% at NSD3; 101% at SUV420H2.

For the compound `Nc1ncnc2c1ncn2[C@@H]1O[C@H](CSCCCCNCc2cccc(-c3ccc(Cl)cc3)c2)[C@@H](O)[C@H]1O` [SGC8158], the remaining activity at 1 µM on BCDIN3D came to 55%; at SUV420H1 it was 96%; on METTL3-14 it was 97%; on NSD1, 104%; on NSD3, 97%; at SUV420H2, 98%. In addition, the remaining activity at 10 µM was 11% on BCDIN3D; 87% on SUV420H1; 84% on METTL3-14; 99% on NSD1; 95% on NSD3; 87% on SUV420H2.
